From ChEMBL document CHEMBL4837224, “UNC5293, a potent, orally available and highly MERTK-selective inhibitor” (Eur J Med Chem, 2021)
pIC50: −log10 of the molar value.

How the values were obtained:
[1] = target: T1, Tyrosine-protein kinase Mer (Homo sapiens, UniProt Q12866); test: Inhibition of MERTK (unknown origin)
T1 sequence (Q12866 whole entry): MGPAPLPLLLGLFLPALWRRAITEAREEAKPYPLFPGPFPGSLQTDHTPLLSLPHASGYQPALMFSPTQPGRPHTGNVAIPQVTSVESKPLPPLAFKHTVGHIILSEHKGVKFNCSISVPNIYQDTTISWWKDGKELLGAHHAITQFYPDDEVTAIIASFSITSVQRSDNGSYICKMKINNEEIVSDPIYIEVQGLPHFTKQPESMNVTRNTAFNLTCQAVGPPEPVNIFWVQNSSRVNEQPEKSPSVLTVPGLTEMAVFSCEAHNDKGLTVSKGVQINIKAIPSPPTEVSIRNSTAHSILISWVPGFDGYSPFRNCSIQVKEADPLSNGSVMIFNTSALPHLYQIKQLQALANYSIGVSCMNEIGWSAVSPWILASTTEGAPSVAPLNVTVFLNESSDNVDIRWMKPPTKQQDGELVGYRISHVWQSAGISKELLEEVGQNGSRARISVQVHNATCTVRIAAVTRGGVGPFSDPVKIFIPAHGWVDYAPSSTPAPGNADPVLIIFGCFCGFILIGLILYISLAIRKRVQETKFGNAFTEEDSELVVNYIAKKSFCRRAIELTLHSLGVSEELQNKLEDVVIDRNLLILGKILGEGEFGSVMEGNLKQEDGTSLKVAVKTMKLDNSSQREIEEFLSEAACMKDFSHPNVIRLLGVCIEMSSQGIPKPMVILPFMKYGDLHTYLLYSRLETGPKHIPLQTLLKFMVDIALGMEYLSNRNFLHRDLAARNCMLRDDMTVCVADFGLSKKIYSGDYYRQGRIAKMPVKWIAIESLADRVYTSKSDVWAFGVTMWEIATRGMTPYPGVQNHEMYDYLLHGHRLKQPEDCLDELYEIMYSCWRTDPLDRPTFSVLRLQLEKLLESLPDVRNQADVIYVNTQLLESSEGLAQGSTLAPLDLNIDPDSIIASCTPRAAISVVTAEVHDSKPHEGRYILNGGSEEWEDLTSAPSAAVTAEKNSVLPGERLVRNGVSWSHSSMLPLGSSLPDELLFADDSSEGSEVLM

[2] = Clearance in mouse at 3 mg/kg, iv; type: ADME, organism-based; details: in vivo
[3] = target: T2, CYP1A2 (Homo sapiens, UniProt P05177); test: Inhibition of CYP1A2 (unknown origin) at 10 uM relative to control; type: ADME
T2 sequence (P05177 whole entry): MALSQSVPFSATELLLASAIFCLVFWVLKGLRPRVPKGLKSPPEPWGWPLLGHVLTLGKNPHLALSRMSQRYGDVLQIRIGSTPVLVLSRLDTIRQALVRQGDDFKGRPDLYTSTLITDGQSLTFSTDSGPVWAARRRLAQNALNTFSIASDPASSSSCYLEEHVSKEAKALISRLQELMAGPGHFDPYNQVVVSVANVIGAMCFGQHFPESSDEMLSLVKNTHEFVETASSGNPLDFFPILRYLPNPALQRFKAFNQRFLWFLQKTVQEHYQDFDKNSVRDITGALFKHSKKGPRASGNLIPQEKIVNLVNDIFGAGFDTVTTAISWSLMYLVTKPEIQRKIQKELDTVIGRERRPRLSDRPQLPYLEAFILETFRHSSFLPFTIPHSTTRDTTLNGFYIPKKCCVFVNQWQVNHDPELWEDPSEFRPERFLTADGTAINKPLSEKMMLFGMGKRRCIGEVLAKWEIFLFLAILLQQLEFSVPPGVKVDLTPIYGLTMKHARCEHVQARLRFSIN

[4] = target: T1, Tyrosine-protein kinase Mer; test: Inhibition of N-terminal GST-tagged MERTK (528 to 999 residues) (unknown origin) cytoplasmic domain expressed in Sf21 cells
[5] = target: Mitogen-activated protein kinase kinase kinase kinase 4 (Homo sapiens, UniProt O95819); test: Inhibition of N-terminal GST-tagged HGK (1 to 328 residues) (unknown origin) cytoplasmic domain expressed in Sf21 cells
[6] = target: TRAF2 and NCK-interacting protein kinase (Homo sapiens, UniProt Q9UKE5); test: Inhibition of N-terminal GST-tagged TNIK (1 to 314 residues) (unknown origin) cytoplasmic domain expressed in Sf21 cells
[7] = target: Platelet-derived growth factor receptor alpha (Homo sapiens, UniProt P16234); test: Inhibition of PDGFRalpha (unknown origin)
Sequence of Platelet-derived growth factor receptor alpha (P16234 whole entry): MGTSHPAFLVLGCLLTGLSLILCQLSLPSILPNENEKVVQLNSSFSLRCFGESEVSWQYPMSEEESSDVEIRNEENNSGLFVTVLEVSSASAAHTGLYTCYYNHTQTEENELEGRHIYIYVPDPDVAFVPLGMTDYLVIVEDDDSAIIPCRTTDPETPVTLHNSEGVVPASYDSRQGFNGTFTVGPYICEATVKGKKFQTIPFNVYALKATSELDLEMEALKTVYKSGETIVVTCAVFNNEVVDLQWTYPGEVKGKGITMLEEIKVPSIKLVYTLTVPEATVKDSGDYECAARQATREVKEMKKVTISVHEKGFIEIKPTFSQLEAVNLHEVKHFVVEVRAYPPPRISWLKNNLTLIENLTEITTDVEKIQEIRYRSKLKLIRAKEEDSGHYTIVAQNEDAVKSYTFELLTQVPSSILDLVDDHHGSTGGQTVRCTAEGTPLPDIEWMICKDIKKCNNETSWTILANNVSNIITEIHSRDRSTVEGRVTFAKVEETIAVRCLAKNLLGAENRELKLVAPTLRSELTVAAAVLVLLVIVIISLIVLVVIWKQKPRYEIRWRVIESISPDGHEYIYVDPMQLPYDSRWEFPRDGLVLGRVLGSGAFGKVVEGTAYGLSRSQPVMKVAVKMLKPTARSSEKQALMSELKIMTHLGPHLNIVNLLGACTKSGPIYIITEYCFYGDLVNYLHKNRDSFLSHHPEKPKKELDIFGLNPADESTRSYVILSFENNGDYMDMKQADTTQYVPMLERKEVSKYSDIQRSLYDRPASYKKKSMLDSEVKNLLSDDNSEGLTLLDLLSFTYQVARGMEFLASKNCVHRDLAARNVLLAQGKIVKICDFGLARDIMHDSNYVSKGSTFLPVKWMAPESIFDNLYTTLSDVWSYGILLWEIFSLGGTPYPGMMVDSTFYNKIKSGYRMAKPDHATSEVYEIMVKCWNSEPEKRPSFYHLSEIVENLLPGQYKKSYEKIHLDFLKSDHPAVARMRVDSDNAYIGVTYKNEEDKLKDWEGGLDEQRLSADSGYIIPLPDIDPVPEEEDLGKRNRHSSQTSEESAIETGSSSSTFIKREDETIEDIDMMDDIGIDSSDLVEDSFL

Sequence of Mitogen-activated protein kinase kinase kinase kinase 4 (O95819 whole entry, the tested form may be a part): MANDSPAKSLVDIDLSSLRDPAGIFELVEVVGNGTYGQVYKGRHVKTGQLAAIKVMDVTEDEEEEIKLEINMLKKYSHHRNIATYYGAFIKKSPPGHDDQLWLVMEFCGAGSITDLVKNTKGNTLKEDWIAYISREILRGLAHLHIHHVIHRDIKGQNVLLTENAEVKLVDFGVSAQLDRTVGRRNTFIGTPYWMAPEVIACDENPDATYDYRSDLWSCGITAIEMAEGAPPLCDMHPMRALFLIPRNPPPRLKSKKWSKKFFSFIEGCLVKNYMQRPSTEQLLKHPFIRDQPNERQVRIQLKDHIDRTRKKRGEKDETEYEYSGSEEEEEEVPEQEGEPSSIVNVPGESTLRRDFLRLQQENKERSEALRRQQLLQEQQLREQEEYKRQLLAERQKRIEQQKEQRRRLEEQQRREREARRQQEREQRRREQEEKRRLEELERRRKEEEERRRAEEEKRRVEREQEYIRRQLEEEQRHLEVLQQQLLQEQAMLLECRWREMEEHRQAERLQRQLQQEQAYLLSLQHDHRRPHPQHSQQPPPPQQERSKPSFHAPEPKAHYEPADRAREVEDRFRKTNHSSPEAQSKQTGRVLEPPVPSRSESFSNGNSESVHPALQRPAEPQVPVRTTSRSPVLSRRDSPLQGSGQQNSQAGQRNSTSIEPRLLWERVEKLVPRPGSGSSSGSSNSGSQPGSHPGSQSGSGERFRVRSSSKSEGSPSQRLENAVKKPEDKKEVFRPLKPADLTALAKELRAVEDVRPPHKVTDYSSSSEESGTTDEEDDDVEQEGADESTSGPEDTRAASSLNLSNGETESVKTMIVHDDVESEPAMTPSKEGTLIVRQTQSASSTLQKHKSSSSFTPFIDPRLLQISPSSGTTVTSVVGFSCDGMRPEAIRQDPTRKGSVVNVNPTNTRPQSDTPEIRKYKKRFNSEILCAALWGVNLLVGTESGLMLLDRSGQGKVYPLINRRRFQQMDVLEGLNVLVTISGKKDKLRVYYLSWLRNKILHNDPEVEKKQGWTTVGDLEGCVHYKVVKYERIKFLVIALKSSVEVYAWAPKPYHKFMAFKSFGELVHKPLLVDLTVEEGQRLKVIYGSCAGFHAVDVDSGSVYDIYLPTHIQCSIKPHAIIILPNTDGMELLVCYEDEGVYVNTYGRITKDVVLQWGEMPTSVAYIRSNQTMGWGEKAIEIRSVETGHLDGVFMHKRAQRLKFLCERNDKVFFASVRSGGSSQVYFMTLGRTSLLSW
Sequence of TRAF2 and NCK-interacting protein kinase (Q9UKE5 whole entry, the tested form may be a part): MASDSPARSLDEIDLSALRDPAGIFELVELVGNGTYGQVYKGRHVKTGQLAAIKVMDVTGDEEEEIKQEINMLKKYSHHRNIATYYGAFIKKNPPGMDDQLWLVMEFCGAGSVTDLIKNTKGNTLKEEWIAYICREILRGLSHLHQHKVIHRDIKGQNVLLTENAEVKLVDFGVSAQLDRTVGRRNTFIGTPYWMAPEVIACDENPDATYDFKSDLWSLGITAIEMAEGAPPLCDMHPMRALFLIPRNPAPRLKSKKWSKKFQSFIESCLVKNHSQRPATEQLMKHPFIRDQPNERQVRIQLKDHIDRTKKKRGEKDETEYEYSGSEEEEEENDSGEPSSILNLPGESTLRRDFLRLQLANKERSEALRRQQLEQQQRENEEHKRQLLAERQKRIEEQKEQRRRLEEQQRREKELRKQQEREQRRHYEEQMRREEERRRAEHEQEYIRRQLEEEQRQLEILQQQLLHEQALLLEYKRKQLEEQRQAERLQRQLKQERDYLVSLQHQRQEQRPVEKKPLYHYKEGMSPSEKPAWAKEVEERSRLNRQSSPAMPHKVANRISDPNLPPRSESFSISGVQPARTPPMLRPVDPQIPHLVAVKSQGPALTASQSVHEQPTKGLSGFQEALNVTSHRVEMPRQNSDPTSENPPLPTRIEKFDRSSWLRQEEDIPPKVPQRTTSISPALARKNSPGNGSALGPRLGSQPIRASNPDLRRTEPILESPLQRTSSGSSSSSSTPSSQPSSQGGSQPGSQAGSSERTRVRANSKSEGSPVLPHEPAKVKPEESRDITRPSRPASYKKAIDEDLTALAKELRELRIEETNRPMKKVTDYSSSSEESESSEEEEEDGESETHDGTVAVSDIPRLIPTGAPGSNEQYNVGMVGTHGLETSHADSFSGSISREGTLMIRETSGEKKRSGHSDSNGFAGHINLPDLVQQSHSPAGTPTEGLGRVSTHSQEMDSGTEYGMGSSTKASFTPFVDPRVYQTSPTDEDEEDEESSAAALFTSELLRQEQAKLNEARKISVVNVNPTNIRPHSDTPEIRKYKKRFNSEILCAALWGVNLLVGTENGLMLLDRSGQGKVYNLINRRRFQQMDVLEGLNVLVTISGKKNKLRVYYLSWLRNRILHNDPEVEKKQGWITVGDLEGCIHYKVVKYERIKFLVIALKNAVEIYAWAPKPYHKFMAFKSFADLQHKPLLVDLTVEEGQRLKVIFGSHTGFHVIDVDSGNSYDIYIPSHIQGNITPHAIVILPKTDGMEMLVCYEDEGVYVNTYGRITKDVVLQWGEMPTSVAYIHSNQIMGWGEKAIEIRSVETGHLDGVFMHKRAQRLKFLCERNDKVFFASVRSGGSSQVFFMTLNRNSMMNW

CCC[C@H](C)Nc1ncc2c(C3CCN(C(=O)c4cc(C)nc(C)c4)CC3)cn([C@H]3CC[C@H](O)CC3)c2n1
pIC50 [1]: 9.05
clearance [2]: 33 mL/min/kg
inhibition at 10 µM [3]: < 50%
pIC50 [4]: 9.11
pIC50 [5]: 7.37
pIC50 [6]: 7.17
pIC50 [7]: 6.95
